{"source": "the supplement of paper PMC10307832", "assay_in_all_cases": "relative viability (nuclei count vs DMSO), 5 days (fraction); higher = more cells survive", "key": {"NCI-H650": {"test_system": "NCI-H650", "procedure,_shortened": "(§1)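 Relative viability equals treated-well nuclei counts divided by vehicle-well nuclei counts. Counts came from 4× images of lung cancer cell lines grown in 1536-well plates for 5 days after pin-tool dosing on the day after seeding. Dosing used one drug alone or a fixed anchor-drug dose plus five library-drug doses (not always all listed) in √10 steps, and values are medians of duplicate plates.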"}, "SK-MES-1": {"test_system": "SK-MES-1", "procedure,_shortened": "as §1"}, "NCI-H2085": {"test_system": "NCI-H2085", "procedure,_shortened": "as §1"}, "H3255": {"test_system": "H3255", "procedure,_shortened": "as §1"}, "NCI-H2087": {"test_system": "NCI-H2087", "procedure,_shortened": "as §1"}, "NCI-H1793": {"test_system": "NCI-H1793", "procedure,_shortened": "as §1"}, "HCC-827": {"test_system": "HCC-827", "procedure,_shortened": "as §1"}, "NCI-H1563": {"test_system": "NCI-H1563", "procedure,_shortened": "as §1"}, "NCI-H520": {"test_system": "NCI-H520", "procedure,_shortened": "as §1"}, "EPLC-272H": {"test_system": "EPLC-272H", "procedure,_shortened": "as §1"}, "NCI-H1993": {"test_system": "NCI-H1993", "procedure,_shortened": "as §1"}}}
{"smiles": "Clc1ccc(Nc2nnc(Cc3ccncc3)c3ccccc23)cc1", "note": "[Vatalanib] + CS(=O)(=O)CCNCc1ccc(-c2ccc3ncnc(Nc4ccc(OCc5cccc(F)c5)c(Cl)c4)c3c2)o1 [Lapatinib] (partner 2 µM)", "values": [{"measurement": "relative viability", "setting": "NCI-H650; first compound 0.04 µM", "value": 0.694}, {"measurement": "relative viability", "setting": "NCI-H650; first compound 0.1265 µM", "value": 0.784}, {"measurement": "relative viability", "setting": "NCI-H650; first compound 1.265 µM", "value": 0.784}, {"measurement": "relative viability", "setting": "NCI-H650; first compound 4 µM", "value": 0.911}, {"measurement": "relative viability", "setting": "SK-MES-1; first compound 0.04 µM", "value": 0.516}, {"measurement": "relative viability", "setting": "SK-MES-1; first compound 0.1265 µM", "value": 0.457}, {"measurement": "relative viability", "setting": "SK-MES-1; first compound 0.4 µM", "value": 0.464}, {"measurement": "relative viability", "setting": "SK-MES-1; first compound 1.265 µM", "value": 0.462}, {"measurement": "relative viability", "setting": "SK-MES-1; first compound 4 µM", "value": 0.429}, {"measurement": "relative viability", "setting": "NCI-H2085; first compound 0.04 µM", "value": 0.818}, {"measurement": "relative viability", "setting": "NCI-H2085; first compound 0.1265 µM", "value": 0.736}, {"measurement": "relative viability", "setting": "NCI-H2085; first compound 0.4 µM", "value": 0.891}, {"measurement": "relative viability", "setting": "NCI-H2085; first compound 1.265 µM", "value": 0.701}, {"measurement": "relative viability", "setting": "NCI-H2085; first compound 4 µM", "value": 0.723}, {"measurement": "relative viability", "setting": "H3255; first compound 0.04 µM", "value": 0.261}, {"measurement": "relative viability", "setting": "H3255; first compound 0.1265 µM", "value": 0.226}, {"measurement": "relative viability", "setting": "H3255; first compound 0.4 µM", "value": 0.287}, {"measurement": "relative viability", "setting": "H3255; first compound 1.265 µM", "value": 0.247}, {"measurement": "relative viability", "setting": "H3255; first compound 4 µM", "value": 0.263}, {"measurement": "relative viability", "setting": "NCI-H2087; first compound 0.04 µM", "value": 1.12}, {"measurement": "relative viability", "setting": "NCI-H2087; first compound 0.1265 µM", "value": 1.02}, {"measurement": "relative viability", "setting": "NCI-H2087; first compound 0.4 µM", "value": 1.15}, {"measurement": "relative viability", "setting": "NCI-H2087; first compound 1.265 µM", "value": 1.09}, {"measurement": "relative viability", "setting": "NCI-H2087; first compound 4 µM", "value": 1.12}, {"measurement": "relative viability", "setting": "NCI-H1793; first compound 0.04 µM", "value": 0.743}, {"measurement": "relative viability", "setting": "NCI-H1793; first compound 0.1265 µM", "value": 0.704}, {"measurement": "relative viability", "setting": "NCI-H1793; first compound 0.4 µM", "value": 1.05}, {"measurement": "relative viability", "setting": "NCI-H1793; first compound 1.265 µM", "value": 0.64}, {"measurement": "relative viability", "setting": "NCI-H1793; first compound 4 µM", "value": 0.81}, {"measurement": "relative viability", "setting": "HCC-827; first compound 0.04 µM", "value": 0.19}, {"measurement": "relative viability", "setting": "HCC-827; first compound 0.1265 µM", "value": 0.174}, {"measurement": "relative viability", "setting": "HCC-827; first compound 0.4 µM", "value": 0.182}, {"measurement": "relative viability", "setting": "HCC-827; first compound 1.265 µM", "value": 0.165}, {"measurement": "relative viability", "setting": "HCC-827; first compound 4 µM", "value": 0.188}, {"measurement": "relative viability", "setting": "NCI-H1563; first compound 0.04 µM", "value": 0.994}, {"measurement": "relative viability", "setting": "NCI-H1563; first compound 0.1265 µM", "value": 0.91}, {"measurement": "relative viability", "setting": "NCI-H1563; first compound 0.4 µM", "value": 1.12}, {"measurement": "relative viability", "setting": "NCI-H1563; first compound 1.265 µM", "value": 0.945}, {"measurement": "relative viability", "setting": "NCI-H1563; first compound 4 µM", "value": 0.777}, {"measurement": "relative viability", "setting": "NCI-H520; first compound 0.04 µM", "value": 0.94}, {"measurement": "relative viability", "setting": "NCI-H520; first compound 0.1265 µM", "value": 0.711}, {"measurement": "relative viability", "setting": "NCI-H520; first compound 0.4 µM", "value": 0.891}, {"measurement": "relative viability", "setting": "NCI-H520; first compound 1.265 µM", "value": 0.741}, {"measurement": "relative viability", "setting": "NCI-H520; first compound 4 µM", "value": 0.82}, {"measurement": "relative viability", "setting": "EPLC-272H; first compound 0.04 µM", "value": 0.931}, {"measurement": "relative viability", "setting": "EPLC-272H; first compound 0.1265 µM", "value": 0.9}, {"measurement": "relative viability", "setting": "EPLC-272H; first compound 0.4 µM", "value": 0.23}, {"measurement": "relative viability", "setting": "EPLC-272H; first compound 1.265 µM", "value": 0.985}, {"measurement": "relative viability", "setting": "EPLC-272H; first compound 4 µM", "value": 1.01}, {"measurement": "relative viability", "setting": "NCI-H1993; first compound 0.04 µM", "value": 0.909}, {"measurement": "relative viability", "setting": "NCI-H1993; first compound 0.1265 µM", "value": 0.721}, {"measurement": "relative viability", "setting": "NCI-H1993; first compound 0.4 µM", "value": 0.828}, {"measurement": "relative viability", "setting": "NCI-H1993; first compound 1.265 µM", "value": 0.755}, {"measurement": "relative viability", "setting": "NCI-H1993; first compound 4 µM", "value": 0.747}]}
